Laboratory results published in paper PMC3814616, “BRAF inhibitors suppress apoptosis through off-target inhibition of JNK signaling” (eLife, 2013).

Columns and labels:
[1] = target: T1, full length MAP4K5 (Homo sapiens, UniProt Q9Y4K4); experiment: In vitro kinase assay (Reaction Biology); assay type: biochemical
T1 construct: and full length MAP4K5 (MBP substrate, ATP 10 μM) (Reaction Biology); purchased Reaction Biology

[2] = test system: cleaved caspase-3; experiment: Immunohistochemistry of cSCC from vemurafenib-treated patients vs sporadic cSCC; assay type: in vivo, human; conditions: stained cells per mm^2 tumor, p=0.042
Experimental: (§1) Phospho-JNK and cleaved caspase-3 expression were assessed by immunohistochemistry and then quantified following normalization by unit area (mm^2) of tumor tissue (malignant keratinocytes) only (Figure 4A–D, Figure 4—figure supplement 1).
(§2) Cutaneous squamous cell carcinomas biopsied from patients treated with or without BRAF-inhibitor were obtained either under clinical trials (Roche) or separate IRB approval (LAB08-0750). Staining levels were quantified by counting positively labeled cells and dividing by the total area of the tumor tissue within each sample. To measure tumor areas, all samples were photographed, tumor cells outlined, and total pixel numbers calculated using included image analysis tools in Adobe Photoshop and standardized to a hemacytometer to convert to mm^2. To measure apoptosis in irradiated skin, pyknotic or dyskeratotic epidermal keratinocytes were counted and normalized to length (mm) of epidermis.

[3] = test system: phospho-JNK; experiment: as above; assay type: in vivo, human; conditions: stained cells per mm^2 tumor, p=0.013
Experimental: as §1, §2

[4] = target: T2, human full-length ZAK (Homo sapiens, UniProt Q9NYL2); experiment: In vitro kinase assay (Reaction Biology); assay type: biochemical
T2 construct: In vitro kinase assays were performed using human full-length ZAK; purchased Reaction Biology
T2 sequence (Q9NYL2 1-455 isoform Q9NYL2-2): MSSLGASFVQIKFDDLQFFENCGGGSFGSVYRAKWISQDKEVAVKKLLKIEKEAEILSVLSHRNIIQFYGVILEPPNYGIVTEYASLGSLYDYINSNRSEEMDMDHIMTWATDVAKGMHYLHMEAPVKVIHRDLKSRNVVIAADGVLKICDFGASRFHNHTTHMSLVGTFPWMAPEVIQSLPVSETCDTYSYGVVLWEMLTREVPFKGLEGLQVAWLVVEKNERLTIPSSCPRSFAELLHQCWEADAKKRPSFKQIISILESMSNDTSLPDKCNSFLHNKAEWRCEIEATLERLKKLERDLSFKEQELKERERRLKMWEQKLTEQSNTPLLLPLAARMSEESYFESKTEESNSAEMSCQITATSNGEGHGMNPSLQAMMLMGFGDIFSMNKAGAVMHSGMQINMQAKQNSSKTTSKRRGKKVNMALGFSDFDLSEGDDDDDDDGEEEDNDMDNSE

[5] = target: T3, HPK1 (MAP4K1) (Homo sapiens, UniProt Q92918); experiment: Quantitative competitive binding assay (KINOMEscan); conditions: for remaining binding at 0.05 µM: read-out: Percent control (50 nM); for remaining binding at 0.2 µM: read-out: Percent control (200 nM); for remaining binding at 1 µM: read-out: Percent control (1000 nM); for remaining binding at 10 µM: read-out: Percent control (10 μM)
T3 construct: purchased KINOMEscan (DiscoveRx), San Diego, CA
T3 sequence (Q92918 whole entry): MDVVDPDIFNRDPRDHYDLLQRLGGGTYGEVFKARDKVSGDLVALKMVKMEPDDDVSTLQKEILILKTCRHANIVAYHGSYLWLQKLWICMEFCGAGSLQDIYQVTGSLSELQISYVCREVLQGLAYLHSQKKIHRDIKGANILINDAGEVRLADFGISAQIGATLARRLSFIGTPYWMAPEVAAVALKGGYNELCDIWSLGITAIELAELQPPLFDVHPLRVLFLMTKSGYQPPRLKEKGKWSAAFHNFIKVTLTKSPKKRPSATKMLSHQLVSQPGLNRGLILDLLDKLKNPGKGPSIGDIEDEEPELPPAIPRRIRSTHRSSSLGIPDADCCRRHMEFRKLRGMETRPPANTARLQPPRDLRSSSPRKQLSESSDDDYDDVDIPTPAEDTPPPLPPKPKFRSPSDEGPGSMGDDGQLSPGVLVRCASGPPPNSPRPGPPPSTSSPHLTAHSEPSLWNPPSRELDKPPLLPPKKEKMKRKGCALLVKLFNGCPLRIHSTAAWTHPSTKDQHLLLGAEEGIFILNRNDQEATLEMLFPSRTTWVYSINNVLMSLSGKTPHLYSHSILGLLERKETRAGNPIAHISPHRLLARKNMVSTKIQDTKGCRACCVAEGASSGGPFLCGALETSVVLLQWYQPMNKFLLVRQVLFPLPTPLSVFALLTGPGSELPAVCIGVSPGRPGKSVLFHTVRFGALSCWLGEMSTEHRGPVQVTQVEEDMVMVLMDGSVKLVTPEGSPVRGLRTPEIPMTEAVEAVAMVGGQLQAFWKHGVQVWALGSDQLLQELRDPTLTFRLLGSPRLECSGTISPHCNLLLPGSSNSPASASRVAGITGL

[6] = 960 mg PO BID, ref Flaherty et al., 2010; cited from earlier work
[7] = target: T4, MAP4K4 (Homo sapiens, UniProt O95819); design: method as in Bollag et al., 2010; conditions: ref Bollag et al., 2010; read-out: Published biochemical IC50; cited from earlier work
T4 construct: purchased KINOMEscan (DiscoveRx), San Diego, CA
T4 sequence (O95819 whole entry): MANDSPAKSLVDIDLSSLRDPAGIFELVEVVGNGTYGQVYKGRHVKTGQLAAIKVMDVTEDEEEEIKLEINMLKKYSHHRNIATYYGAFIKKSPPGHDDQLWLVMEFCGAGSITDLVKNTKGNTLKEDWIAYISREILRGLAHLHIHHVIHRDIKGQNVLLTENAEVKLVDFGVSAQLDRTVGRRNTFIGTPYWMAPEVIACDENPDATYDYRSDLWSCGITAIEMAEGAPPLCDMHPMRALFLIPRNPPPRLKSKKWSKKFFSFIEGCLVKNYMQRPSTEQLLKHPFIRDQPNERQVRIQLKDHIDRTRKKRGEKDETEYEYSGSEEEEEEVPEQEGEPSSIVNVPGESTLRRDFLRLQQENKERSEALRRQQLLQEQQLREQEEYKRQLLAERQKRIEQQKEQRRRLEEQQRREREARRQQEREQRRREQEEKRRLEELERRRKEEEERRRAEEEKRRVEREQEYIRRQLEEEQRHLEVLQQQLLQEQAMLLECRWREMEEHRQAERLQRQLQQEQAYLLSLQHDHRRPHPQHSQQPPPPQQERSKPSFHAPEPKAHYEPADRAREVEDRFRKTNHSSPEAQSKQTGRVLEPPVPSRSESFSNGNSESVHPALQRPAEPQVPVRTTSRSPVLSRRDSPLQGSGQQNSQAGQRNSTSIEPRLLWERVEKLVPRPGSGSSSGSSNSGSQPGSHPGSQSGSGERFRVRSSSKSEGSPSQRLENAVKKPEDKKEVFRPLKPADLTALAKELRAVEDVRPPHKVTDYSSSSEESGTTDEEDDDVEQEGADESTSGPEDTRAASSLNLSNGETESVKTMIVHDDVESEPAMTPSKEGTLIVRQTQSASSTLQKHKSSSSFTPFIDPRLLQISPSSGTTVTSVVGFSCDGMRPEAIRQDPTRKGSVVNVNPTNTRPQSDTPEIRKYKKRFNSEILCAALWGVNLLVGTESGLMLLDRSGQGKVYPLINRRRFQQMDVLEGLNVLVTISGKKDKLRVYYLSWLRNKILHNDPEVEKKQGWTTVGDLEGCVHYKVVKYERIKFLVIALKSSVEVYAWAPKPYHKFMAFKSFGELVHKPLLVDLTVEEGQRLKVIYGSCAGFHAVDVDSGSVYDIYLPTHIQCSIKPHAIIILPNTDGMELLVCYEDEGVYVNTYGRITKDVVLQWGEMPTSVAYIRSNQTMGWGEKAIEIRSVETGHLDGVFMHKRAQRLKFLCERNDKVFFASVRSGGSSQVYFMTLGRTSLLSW

[8] = test system: phospho-JNK; experiment: Western blot of epidermis of irradiated mice; conditions: oral gavage 40–80 mg/kg twice a day, 10 kJ/m^2 UVB
[9] = target: BRAF(V600E) (Homo sapiens, UniProt P15056, V600E); experiment: biochemical
BRAF(V600E), sequence (P15056 whole entry V600E): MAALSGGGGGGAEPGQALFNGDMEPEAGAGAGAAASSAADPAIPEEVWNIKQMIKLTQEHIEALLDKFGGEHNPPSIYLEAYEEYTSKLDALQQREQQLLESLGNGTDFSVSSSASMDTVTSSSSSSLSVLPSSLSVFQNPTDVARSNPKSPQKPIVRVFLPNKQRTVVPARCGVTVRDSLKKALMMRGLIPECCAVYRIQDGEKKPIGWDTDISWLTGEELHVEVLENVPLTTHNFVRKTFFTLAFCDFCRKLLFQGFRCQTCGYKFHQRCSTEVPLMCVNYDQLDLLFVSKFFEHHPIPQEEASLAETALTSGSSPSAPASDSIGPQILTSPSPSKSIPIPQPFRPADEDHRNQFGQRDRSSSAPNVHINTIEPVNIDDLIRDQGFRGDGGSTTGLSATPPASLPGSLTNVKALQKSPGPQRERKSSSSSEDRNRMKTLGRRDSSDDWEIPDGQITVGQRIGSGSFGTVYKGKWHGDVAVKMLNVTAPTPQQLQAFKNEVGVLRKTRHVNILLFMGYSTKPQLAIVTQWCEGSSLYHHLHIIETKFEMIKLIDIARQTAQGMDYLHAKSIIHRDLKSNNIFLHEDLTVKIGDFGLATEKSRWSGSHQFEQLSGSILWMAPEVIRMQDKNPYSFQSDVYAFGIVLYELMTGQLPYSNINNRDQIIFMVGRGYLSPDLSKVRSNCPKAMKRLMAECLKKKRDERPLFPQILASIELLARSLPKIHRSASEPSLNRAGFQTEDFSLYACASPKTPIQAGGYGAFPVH

[10] = test system: phospho-JNK and phospho-p38; conditions: A375 and WM35, 24 hr
[11] = test system: phospho-JNK; experiment: Immunohistochemistry of cSCC from Hairless mice; assay type: in vivo, mouse; conditions: p=0.046
From the text: (§3) We also used the Hairless mouse model of squamous cell carcinoma to assess whether PLX4720 would affect UV-driven tumor development. This is particularly relevant since it appears that UV exposure is an important initiating event in BRAFi-accelerated cSCC ([Su et al., 2012]). Unlike the DMBA/TPA model, in which lesions almost universally harbor Hras mutations ([Brown et al., 1990]), the Hairless model has a very low frequency of Ras mutation in papillomas and carcinomas ([van Kranen et al., 1995]), more similar to sporadic human cSCC. […]
(§4) Figure 5. […] (A and B) cDNA was reverse-transcribed from total RNA, PCR-amplified with the above primers (B) and analyzed by Sanger sequencing for mutations in both directions. No mutations in Hras, Kras, or Nras were detected in any of the papillomas (n = 5) or carcinomas (n = 3) isolated from PLX4720-treated mice. […]
as §2, with “To measure apoptosis in irradiated skin, pyknotic or dyskeratotic epidermal keratinocytes were counted and normalized to length (mm) of epidermis.” left out

[12] = test system: cleaved caspase 3; experiment: Immunohistochemistry of cSCC from Hairless mice; assay type: in vivo, mouse; conditions: p=0.019
From the text: as §3, §4
as §2, with “To measure apoptosis in irradiated skin, pyknotic or dyskeratotic epidermal keratinocytes were counted and normalized to length (mm) of epidermis.” left out

[13] = test system: ZAK (T82Q)-expressing HaCaT cells; experiment: UV-induced apoptosis in HaCaT cells overexpressing ZAK (WT) or gatekeeper mutant ZAK (T82Q); conditions: 1 μM, UVB 720 J/m^2, 24 hr
[14] = test system: Hairless mice; experiment: UV-driven cSCC development in chronically-irradiated Hairless mice; assay type: in vivo, mouse
From the text: We also used the Hairless mouse model of squamous cell carcinoma to assess whether PLX4720 would affect UV-driven tumor development. This is particularly relevant since it appears that UV exposure is an important initiating event in BRAFi-accelerated cSCC ([Su et al., 2012]). Unlike the DMBA/TPA model, in which lesions almost universally harbor Hras mutations ([Brown et al., 1990]), the Hairless model has a very low frequency of Ras mutation in papillomas and carcinomas ([van Kranen et al., 1995]), more similar to sporadic human cSCC. […] Within 20 days of administration of drug, hyperkeratotic papules were visible on the backs of PLX4720-treated animals (Figure 5A,B), which steadily grew into cSCC over the following several weeks (Figure 5C,D). Within this period of 150 days (78 days of drug treatment), control-treated mice had not yet developed any visible lesions (Figure 5E). […]
as §4

[15] = test system: COLO16 cells; experiment: Doxorubicin-induced apoptosis, FACS; conditions: 1 μM, 24 hr
[16] = test system: SRB1 cells; experiment: UV-induced apoptosis, FACS Annexin V+, TMRE-low; assay type: cell-based, human; conditions: 1 kJ/m^2 UVB, 1 μM, 24 hr, vs DMSO
[17] = test system: COLO16 cells; experiment: UV-induced apoptosis, FACS Annexin V+, TMRE-low; assay type: cell-based, human; conditions: 1 kJ/m^2 UVB, 1 μM, 24 hr, vs DMSO
[18] = test system: SRB12 cells; experiment: UV-induced apoptosis, FACS Annexin V+, TMRE-low; assay type: cell-based, human; conditions: 1 kJ/m^2 UVB, 1 μM, 24 hr, vs DMSO
[19] = test system: E1A and HRAS^G12V-transformed wild-type (WT) MEFs; experiment: Soft agar colony formation; assay type: cell-based, mouse; conditions: 0.2 μM and 1.0 μM, 4–6 weeks
[20] = test system: epidermal keratinocytes of C57BL/6 mice; experiment: Acute UVR-induced epidermal apoptosis in mouse skin; conditions: in vivo
From the text: as §2

[21] = at 1 μM, read-out: residual activity

T1 sequence (Q9Y4K4 whole entry): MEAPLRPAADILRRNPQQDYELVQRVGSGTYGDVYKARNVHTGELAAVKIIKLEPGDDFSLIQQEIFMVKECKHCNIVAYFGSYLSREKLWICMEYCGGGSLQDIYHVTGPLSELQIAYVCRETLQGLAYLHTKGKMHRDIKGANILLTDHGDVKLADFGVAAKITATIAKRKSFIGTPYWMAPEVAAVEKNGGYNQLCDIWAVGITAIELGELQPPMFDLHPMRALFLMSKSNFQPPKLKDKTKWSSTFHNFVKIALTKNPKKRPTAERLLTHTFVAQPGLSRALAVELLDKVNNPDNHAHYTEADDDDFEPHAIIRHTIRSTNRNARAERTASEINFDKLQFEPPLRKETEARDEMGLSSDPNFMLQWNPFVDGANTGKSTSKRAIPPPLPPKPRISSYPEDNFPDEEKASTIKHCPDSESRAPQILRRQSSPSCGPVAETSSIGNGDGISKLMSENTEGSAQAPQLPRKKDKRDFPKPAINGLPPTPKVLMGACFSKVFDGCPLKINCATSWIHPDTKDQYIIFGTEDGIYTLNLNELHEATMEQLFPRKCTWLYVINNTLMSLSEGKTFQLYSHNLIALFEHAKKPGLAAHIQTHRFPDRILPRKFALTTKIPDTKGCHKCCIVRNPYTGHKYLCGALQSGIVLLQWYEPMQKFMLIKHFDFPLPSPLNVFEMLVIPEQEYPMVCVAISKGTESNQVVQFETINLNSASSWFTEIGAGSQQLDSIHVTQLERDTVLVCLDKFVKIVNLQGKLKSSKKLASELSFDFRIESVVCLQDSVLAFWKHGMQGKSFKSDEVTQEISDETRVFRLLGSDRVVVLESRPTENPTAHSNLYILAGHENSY

CCCS(=O)(=O)Nc1ccc(F)c(C(=O)c2c[nH]c3ncc(-c4ccc(Cl)cc4)cc23)c1F [vemurafenib]
IC50 ([1]; MBP substrate, ATP 10 μM, read-out: biochemical IC50): 354 ± 26 nM
remaining activity at 1 µM [1, 21]: 25.7 ± 0.6%
cleaved caspase-3 expression in cSCC of treated patients vs sporadic cSCC [2]: significant reductions
phospho-JNK expression in cSCC of treated patients vs sporadic cSCC [3]: significant reductions
IC50 ([4]; MBP substrate, ATP 2.5 μM, read-out: biochemical IC50): 187 ± 5 nM
remaining activity at 1 µM [4, 21]: 18.9 ± 0.5%
remaining binding at 0.05 µM [5]: 95%
remaining binding at 0.2 µM [5]: 88%
remaining binding at 1 µM [5]: 67%
remaining binding at 10 µM [5]: 15%
mean sustained serum levels [6]: 86 µM
IC50 [7]: > 1000 nM

CCCS(=O)(=O)Nc1ccc(F)c(C(=O)c2c[nH]c3ncc(Cl)cc23)c1F [PLX4720]
UV-induced phospho-JNK in epidermis [8]: significantly suppressed
remaining activity at 0.05 µM ([9]; read-out: Percent control (50 nM)): 38%
remaining activity at 0.2 µM ([9]; read-out: Percent control (200 nM)): 19%
remaining activity at 1 µM ([9]; read-out: Percent control (1000 nM)): 3.9%
remaining activity at 10 µM ([9]; read-out: Percent control (10 μM)): 0.1%
UV-mediated induction of phospho-p38 and phospho-JNK [10]: significant suppression
phospho-JNK expression in tumors vs control-treated mice [11]: significant decreases
cleaved caspase 3 expression in tumors vs control-treated mice [12]: significant decreases
apoptosis of drug-treated ZAK (T82Q)-expressing cells as share of the levels in untreated cells [13]: 76.9%
reduction in latency of papillomas and cSCC ([14]; chronically-irradiated Hairless mice): at least 10 weeks
time from start of drug to visible hyperkeratotic papules ([14]; drug-impregnated chow from day 72, 12.5 kJ/m^2 per week UVB): ≤ 20 days
doxorubicin-induced apoptosis (Annexin V+, TMRE-low cells) [15]: significant decrease in apoptosis
suppression of UV-induced apoptosis [16]: at least 70%
remaining binding at 0.05 µM [5]: 100%
remaining binding at 0.2 µM [5]: 100%
remaining binding at 1 µM [5]: 100%
remaining binding at 10 µM [5]: 47%
suppression of UV-induced apoptosis [17]: at least 70%
suppression of UV-induced apoptosis [18]: at least 70%
colony formation [19]: significant colony formation advantage
apoptotic epidermal keratinocytes in irradiated skin [20]: 4.9 ± 0.3 apoptotic cells/mm skin
